Data on one compound can be found in PMC7503464 (Molecules, 2020).

pKd: −log10 of the molar value.

Experiment in all cases: biochemical
For assay [1], the target named is T1, dihydrofolate reductase (DHFR; wt-DHFR and midW mutants) (Escherichia coli, UniProt P0ABQ4, W133F/W22F/W30F/W74F).
T1 construct: gene folA
The text has this:
(§1) isothermal titration calorimetry on dihydrofolate reductase (DHFR; wt-DHFR and midW mutants)

Assay [2] has as its target T2, dihydrofolate reductase (DHFR; wt-DHFR and midW mutants) (Escherichia coli, UniProt P0ABQ4, W22F/W30F/W47F/W74F).
T2 construct: gene folA
Source text: as §1

Assay [3] has as its target T3, dihydrofolate reductase (DHFR; wt-DHFR and midW mutants) (Escherichia coli, UniProt P0ABQ4, W133F/W30F/W47F/W74F).
T3 construct: gene folA
Source text: as §1

The target of assay [4] is T4, dihydrofolate reductase (DHFR; wt-DHFR and midW mutants) (Escherichia coli, UniProt P0ABQ4, W133F/W22F/W30F/W47F).
T4 construct: gene folA
Source text: as §1

Assay [5] has as its target T5, dihydrofolate reductase (DHFR; wt-DHFR and midW mutants) (Escherichia coli, UniProt P0ABQ4, W133F/W22F/W47F/W74F).
T5 construct: gene folA
Source text: as §1

On to `Nc1nc2ncc(CNc3ccc(C(=O)N[C@@H](CCC(=O)O)C(=O)O)cc3)nc2c(=O)[nH]1` [folate], for which the negative-log Kd (pKd) – broadly, the Kd on a negative log10 scale, so that one unit is a factor of ten – was 4.92 in assay [1]; 5.02 in assay [2]; 5.43 in assay [3]; 5.08 in assay [4]; 5.35 in assay [5].
